Results on 5 compounds are retold here after patent US12258310B2, “Solid peroxyalphahydroxycarboxylic acid generation compositions and the use thereof” (ECOLAB USA INC., priority 2021, dated 2025).

Where “and” joins values, the source holds several entries; their conditions need not be identical. Equal values may be shown once.

Data set [1] in a line: Physical property (vapor pressure, odor) of alphacarboxylic acids and peroxyalphacarboxylic acids. Type of data set: physicochemical.
For data set [2] the following is noted: cited from earlier work.
Data set [3] deals with Salmonella ser. Heidelberg, Newport and Braenderup (modified to be resistant to 50 μg/mL nalidixic acid). The data set can be described thus: Antimicrobial efficacy on chicken carcass, 15 second dip. Type of data set: cell-based. As to conditions: for Avg Log10 Survivors / CFU/Surface (CFU/ml × 50) / Log10 Reduction / Log10 Survivors: 15 second dip, drain time 30 minutes, room temperature. The procedure: Antimicrobial Efficacy of Peroxylactic Acid. The antimicrobial efficacy of peroxylactic acid generated from the solid peroxyalphahydroxycarboxylic acid forming composition of Table 4 was evaluated on chicken carcass against Salmonella in comparison to peroxyacetic acid (PAA). The molecular weight of PLA is 106, and PAA 76, therefore the molar equivalent base of the peracids is 500 ppm PLA equals to 359 ppm PAA.

Data set [4] relates to Salmonella, E. coli, Campylobacter and Listeria. Put plainly: US EPA food contact suspension test (AOAC 960.09), FIG. 3. Type of data set: cell-based. The settings on record: as low as 25 ppm, 30 seconds. As for the experimental part: (§1) Additional Antimicrobial Efficacy of Peroxylactic Acid. Additional antimicrobial efficacy of generated peroxylactic acid was evaluated following the US EPA food contact suspension test protocol (AOAC 960.09) against Salmonella, E. coli, Campylobacter and Listeria according to the conditions set forth in Table 12.

Data set [5] deals with Listeria monocytogenes ATCC 49594. The data set is described as above. It is filed as cell-based. The settings on record: 100 ppm, 30 seconds. The procedure:
as §1

A short description of data set [6]: PLA generation kinetics and pH from solid pellet of Table 4 dissolved in DI water. Type of data set: physicochemical. As for the experimental part:
Following the successful perhydrolysis reactions of the lactide and glycolide esters, the solid composition shown in Table 4 using a lactide precursor was used to generate peroxylactic acid according to the same reaction scheme in FIG. 1. The lactide precursor was formulated into a solid pellet with citric acid and sodium percarbonate and the solid peroxyalphahydroxycarboxylic acid forming composition was added to water for the perhydrolysis reaction to generate peroxylactic acid (PLA). Beneficially, the citric acid acts as both a buffer and a dispersant or disintegrating reagent to provide effervescence to dissolve the solid composition more quickly into water and initiate the reaction of forming PLA. The reaction kinetics were evaluated by dissolving approximately 2.5 gram pellet as shown in Table 4 in 500 mL DI water to measure PLA generation and pH over time.
The PLA generation were measured on two occasions. […] The initial testing point of 10 minutes provides time for the pellet to dissolve in the water so that PLA generation can begin.
The stability of the tablets is also quantifiable by the chemistry of the reagents as they are capable of self-reacting. As a result, tablet (or solid) stability can also be assessed by the ability or capacity of the tablet to generate PLA after storage as another quantifiable mechanism to confirm stability. This is shown in Example 1, Table 6 compared to Table 5 is a direct comparison of PLA generation profiles of the tablets after 9 months of storage. […] In some embodiments it is preferred that at least about 50% or preferably at least about 80% of the PLA (or peroxyalphahydroxycarboxylic acid) generation is maintained.

For data set [7], the system named is Staphylococcus aureus ATCC 6538. The data set can be described thus: US EPA food contact suspension test (AOAC 960.09). Type of data set: cell-based. The settings on record: 30 seconds, 500 ppm synthetic hard water, ambient (18-20° C.). As for the experimental part: (§2) Antimicrobial Efficacy of Peroxylactic Acid. The antimicrobial efficacy of peroxylactic acid generated from the solid peroxyalphahydroxycarboxylic acid forming composition of Table 4 was evaluated following the US EPA food contact suspension test protocol (AOAC 960.09) against Staphylococcus aureus and Escherichia coli according to the conditions set forth in Table 7.

Data set [8] deals with Escherichia coli ATCC 11229. The data set can be described thus: US EPA food contact suspension test (AOAC 960.09). Type of data set: cell-based. As to conditions: 30 seconds, 500 ppm synthetic hard water, ambient (18-20° C.). As for the experimental part:
as §2

The subject of data set [9] is Listeria monocytogenes ATCC 49594. As to conditions: known; cited from earlier work.
Setting [10] is: approx. 2.5 gram pellet of Table 4 in 500 mL DI water, first PLA generation, 10 min.
Setting [11] is: approx. 2.5 gram pellet of Table 4 in 500 mL DI water, first PLA generation, 30 min.
[12] abbreviates: approx. 2.5 gram pellet of Table 4 in 500 mL DI water, first PLA generation, 60 min.
Setting [13] is: approx. 2.5 gram pellet of Table 4 in 500 mL DI water, first PLA generation, 90 min.
The mark [14] stands for this setting: approx. 2.5 gram pellet of Table 4 in 500 mL DI water, first PLA generation, 120 min.
Where [15] appears, read: approx. 2.5 gram pellet of Table 4 in 500 mL DI water, first PLA generation, 150 min.
[16] abbreviates: approx. 2.5 gram pellet of Table 4 in 500 mL DI water, first PLA generation, 180 min.
[17] abbreviates: approx. 2.5 gram pellet of Table 4 in 500 mL DI water, first PLA generation, 210 min.
Setting [18] is: approx. 2.5 gram pellet of Table 4 in 500 mL DI water, first PLA generation, 240 min.
The mark [19] stands for this setting: same batch of tablets stored under ambient conditions for 9 months, 20 min.
[20] abbreviates: same batch of tablets stored under ambient conditions for 9 months, 30 min.
[21] abbreviates: same batch of tablets stored under ambient conditions for 9 months, 40 min.
[22] abbreviates: same batch of tablets stored under ambient conditions for 9 months, 50 min.
Where [23] appears, read: same batch of tablets stored under ambient conditions for 9 months, 60 min.
Setting [24] is: same batch of tablets stored under ambient conditions for 9 months, 120 min.
Where [25] appears, read: same batch of tablets stored under ambient conditions for 9 months, 240 min.
Where [26] appears, read: same batch of tablets stored under ambient conditions for 9 months, 300 min.
The mark [27] stands for this setting: same batch of tablets stored under ambient conditions for 9 months, 360 min.

As to `O=C(O)CO` [Glycolic acid], the Odor entry in [1] is on record as “Odorless”. The “Vapor Pressure (20° C.)” value in data set [2] is given as 0.003 KPa.

In the case of `CC(O)C(=O)OO` (stereo not shown) [PLA, peroxylactic acid], the “Avg Log10 Survivors” value in [3] (500 ppm) is reported as 6.55 Log10; in data set [3] (1000 ppm) it was 6.16 Log10; in data set [3] (2000 ppm), 6.54 Log10. Further, the “CFU/Surface (CFU/ml × 50)” value is 2.90E+06 CFU/Surface and 5.45E+06 CFU/Surface in [3] (500 ppm); 1.60E+06 CFU/Surface and 1.85E+06 CFU/Surface and 1.05E+06 CFU/Surface in data set [3] (1000 ppm). The “Log10 Reduction” value is 1.08 Log10 in [3] (500 ppm); 1.47 Log10 in data set [3] (1000 ppm); 1.09 Log10 in [3] (2000 ppm); less than 1.32 Log10 in [7] (50 ppm PLA); 2.58 Log10 in data set [7] (100 ppm PLA); 4.98 Log10 in data set [7] (150 ppm PLA). In addition, the “Log10 Reduction” value is reported as greater than 6.80 Log10 in [7] (200 ppm PLA), 4.64 Log10 in [8] (25 ppm PLA), greater than 6.89 Log10 in [8] (50 ppm PLA) and greater than 6.89 Log10 in [8] (100 ppm PLA). The “Log10 Survivors” value in [3] (500 ppm) was 6.46 Log10 and 6.74 Log10; in [3] (1000 ppm) it was 6.20 Log10 and 6.27 Log10 and 6.02 Log10. The “Micro efficacy (log reduction) compared to peroxyacetic acid” value is given as “improved micro efficacy” in data set [3] (1000 ppm) and “at least equivalent micro efficacy” in data set [3] (varying concentrations). Also, the “Efficacy against various microbes” value in data set [4] is “provides efficacy at low concentration doses”. Besides, in [5], the “log reduction against Listeria” value is listed as “greater than 7 log”. The “PLA (ppm)” value in [6] (setting [10]) is given as 130 ppm; in data set [6] (setting [11]) it was 222 ppm; in [6] (setting [12]), 236 ppm; in data set [6] (setting [13]), 217 ppm; in data set [6] (setting [14]) it was 202 ppm; in [6] (setting [15]), 188 ppm. Further, the “PLA (ppm)” value worked out at 170 ppm in data set [6] (setting [16]); 152 ppm in data set [6] (setting [17]); 146 ppm in data set [6] (setting [18]); 122 ppm in [6] (same batch of tablets stored under ambient conditions for 9 months, 10 min); 150 ppm in [6] (setting [19]); 170 ppm in [6] (setting [20]). Besides, the “PLA (ppm)” value stood at 198 ppm in [6] (setting [21]); 198 ppm in data set [6] (setting [22]); 200 ppm in [6] (setting [23]); 179 ppm in data set [6] (setting [24]); 160 ppm in data set [6] (same batch of tablets stored under ambient conditions for 9 months, 180 min); 129 ppm in [6] (setting [25]). Further, the “PLA (ppm)” value in data set [6] (setting [26]) was found to be 102 ppm; in data set [6] (setting [27]), 85 ppm. The pH in [6] (setting [10]) came to 6.06; in data set [6] (setting [11]) it was 5.95; in data set [6] (setting [12]), 5.64; in [6] (setting [13]), 5.41; in data set [6] (setting [14]) it was 5.23; in data set [6] (setting [15]), 5.11. The pH is on record as 5.01 in [6] (setting [16]); 4.93 in [6] (setting [17]); 4.87 in data set [6] (setting [18]); 5.73 in data set [6] (setting [19]); 5.69 in [6] (setting [20]); 5.62 in data set [6] (setting [21]). In addition, the pH in data set [6] (setting [22]) worked out at 5.58; in data set [6] (setting [23]) it was 5.49; in data set [6] (setting [24]) it was 5.25; in data set [6] (setting [25]), 4.82; in data set [6] (setting [26]) it was 4.74; in data set [6] (setting [27]), 4.68. Further, the Odor entry in [1] is reported as “Odorless”. The “Average Log10 Growth” value in [7] (50 ppm PLA) is greater than 6.48 Log10; in [7] (100 ppm PLA), 5.22 Log10; in data set [7] (150 ppm PLA), 2.82 Log10; in data set [7] (200 ppm PLA), less than 1.00 Log10; in data set [8] (25 ppm PLA), 3.25 Log10; in data set [8] (50 ppm PLA), less than 1.00 Log10. The “Average Log10 Growth” value in [8] (100 ppm PLA) was less than 1.00 Log10. Further, the CFU/ml in data set [7] (50 ppm PLA) is greater than 3.00E+06 CFU/ml; in data set [7] (100 ppm PLA), 2.20E+05 CFU/ml and 1.24E+05 CFU/ml; in data set [7] (150 ppm PLA) it was 9.20E+02 CFU/ml and 4.80E+02 CFU/ml; in data set [7] (200 ppm PLA), less than 1.00E+01 CFU/ml; in [8] (25 ppm PLA) it was 1.49E+03 CFU/ml and 2.10E+03 CFU/ml; in data set [8] (50 ppm PLA), less than 1.00E+01 CFU/ml. The CFU/ml in [8] (100 ppm PLA) is reported as less than 1.00E+01 CFU/ml. For the same compound, the “Log10 Growth” value in [7] (50 ppm PLA) is greater than 6.48 Log10; in data set [7] (100 ppm PLA), 5.34 Log10 and 5.09 Log10; in data set [7] (150 ppm PLA) it was 2.96 Log10 and 2.68 Log10; in data set [7] (200 ppm PLA), less than 1.00 Log10; in data set [8] (25 ppm PLA), 3.17 Log10 and 3.32 Log10; in data set [8] (50 ppm PLA), less than 1.00 Log10. Further, in data set [8] (100 ppm PLA), the “Log10 Growth” value was less than 1.00 Log10.

As to `CC(=O)OO` [PAA, peroxyacetic acid, reference compound], in [3] (500 ppm), the “Avg Log10 Survivors” value stood at 6.54 Log10; the “CFU/Surface (CFU/ml × 50)” value was 4.35E+06 CFU/Surface and 2.35E+06 CFU/Surface and 3.95E+06 CFU/Surface; the “Log10 Reduction” value turned out to be 1.09 Log10; the “Log10 Survivors” value was 6.64 Log10 and 6.37 Log10 and 6.60 Log10. In data set [9], the “Concentration required for greater than 7 log reduction against Listeria” value was “at least 180 ppm”. For the same compound, the Odor entry in data set [1] is on record as “Sharp pungent”. For the same compound, in data set [2], the “Vapor Pressure (20° C.)” value is 2.06 KPa.

For the compound `CC(=O)O` [Acetic Acid], the Odor result in data set [1] is recorded as “Sour”. Also, the “Vapor Pressure (20° C.)” value in [2] is listed as 1.56 KPa.

In the case of `CC(O)C(=O)O` (stereo not shown) [Lactic Acid], the Odor result in data set [1] is “No irritative odor”. Also, the “Vapor Pressure (20° C.)” value in data set [2] is on record as 0.01 KPa.
